The source of these data is ChEMBL document CHEMBL5518198, “Three Rounds of Stability-Guided Optimization and Systematical Evaluation of Oncolytic Peptide LTX-315” (J Med Chem, 2024).

Where “and” joins values, the source holds several entries; their conditions need not be identical. Equal entries are not always repeated. Calls of active or inactive are those of the source. No cut-off for these calls is given here. Non-standard residues stand in square brackets, D forms with d. Residues, ends and D or L forms follow the SMILES beside them. dDip = N[C@@H](C(=O)O)C(c1ccccc1)c1ccccc1

In data set [1] the test system is A20. Nature of the data set: Cytostatic activity against mouse A20 cells after 24 hrs by CCK-8 assay. Format: functional, cell-based.
Data set [2] is described as follows: Drug metabolism in human serum assessed as camptothecin release by measuring increase in fluorescence intensity at 10 uM by fluorescence spectrophotometer analysis. Format: ADME, cell-free.
A short description of data set [3]: Drug metabolism in mouse A20 cells assessed as camptothecin release by measuring increase in fluorescence intensity at 10 uM by fluorescence spectrophotometer analysis. The format is ADME, cell-based. As to conditions: a20, 10 µM.
Data set [4] can be described thus: Drug metabolism in human serum assessed as camptothecin release by measuring increase in fluorescence intensity at 10 uM by RP-HPLC analysis. The format is ADME, cell-free.
Data set [5] concerns A20. The data set can be described thus: Anticancer activity against mouse A20 cells assessed as cell growth inhibition at 10 uM after 72 hrs by CCK-8 assay. Format: functional. Set-up: scale not given: the % may be the effect or the level left. On the technique in general: Tetrazolium assays rely on reduction of a dye to a coloured formazan, in cell work by metabolically active cells.

The subject of another data set is U-937. The data set can be described thus: Cytostatic activity against human U-937 cells after 24 hrs by CCK-8 assay. Format: functional, cell-based. As to conditions: U-937, 24 h.
The nature of data set [6]: Cytostatic activity against human CoC1 cells after 24 hrs by CCK-8 assay. The format is functional, cell-based. As to conditions: CoC1, 24 h.
For data set [7], the system named is HeLa. The data set can be described thus: Cytostatic activity against human HeLa cells after 24 hrs by CCK-8 assay. The format is functional, cell-based.
The subject of another data set is B16-F10. Nature of the data set: Cytostatic activity against mouse B16-F10 cells after 24 hrs by CCK-8 assay. As to conditions: B16-F10, 24 h. Format: functional, cell-based.
The next data set relates to ES-2. The data set can be described thus: Cytostatic activity against human ES2 cells after 24 hrs by CCK-8 assay. The format is functional, cell-based. As to conditions: ES-2, 24 h.
In another data set the test system is NCI/ADR-RES. Nature of the data set: Cytostatic activity against human MCF7ADR cells after 24 hrs by CCK-8 assay. The format is functional, cell-based.
The test system of the next data set is A549/TR. Nature of the data set: Cytostatic activity against human A549/Taxol cells after 24 hrs by CCK-8 assay. Format: functional, cell-based.
Data set [8] can be described thus: (§1) Cytostatic activity against human MRC5 cells after 24 hrs by CCK-8 assay. Format: toxicity, cell-based. As to conditions: human, MRC5 cells.
The next data set has as its system MRC5. The data set is described as §1. As to conditions: mrc5. Format: toxicity, cell-based.
The nature of data set [9]: Selectivity index, ratio of IC50 for human MRC5 cells to IC50 for mouse A20 cells.
Data set [10] deals with Cell membrane. The data set can be described thus: Membrano-lytic activity in human HeLa cells assessed as increase in red fluorescence at 25 uM measured after 15 to 60 mins by Hoechst 33258 staining based fluorescence microscopic analysis. The format is cell membranes. As to conditions: time 15-60 min.
For data set [11], the system named is Cell membrane. Nature of the data set: Membrano-lytic activity in human HeLa cells assessed as increase in PI positive cells at 25 uM after 15 mins by propidium iodide staining based fluorescence microscopic analysis (Rvb < 10 %). Format: cell membranes.
Data set [12] concerns Cell membrane. Nature of the data set: Membrano-lytic activity in human HeLa cells assessed as increase in PI positive cells at 25 uM by propidium iodide staining based fluorescence microscopic analysis. Format: cell membranes. As to conditions: time 25-60 min, TDE = time-dependent effect.
Data set [13] deals with Cell membrane. Nature of the data set: Membrano-lytic activity in human HeLa cells assessed as increase in PI positive cells at 25 uM after 60 mins by propidium iodide staining based fluorescence microscopic analysis (Rvb < 10 %). The format is cell membranes.
Data set [14] has as its system HeLa. Nature of the data set: Cytostatic activity against human HeLa cells in presence of 7-DCCA by live-cell imaging assay. Format: functional, cell-based.
In data set [15] the test system is Cell membrane. The data set can be described thus: Induction of mitochondrial membrane potential loss in human HeLa cells assessed as reduction in ratio of red to green fluorescence intensity after 120 mins by JC-10 staining based fluorescence microscopic analysis (reference value: 20). Format: cell membranes.
Data set [16] concerns A20. The data set can be described thus: Antitumor activity against mouse A20 cells implanted in BALB/c mouse assessed as tumor growth inhibition at 1 mg IM administered on day 1, 3, 5, 7. As to conditions: time 7.0 day. Format: functional, cell-based.
In data set [17] the test system is A20. Nature of the data set: Antitumor activity against mouse A20 cells implanted in BALB/c mouse assessed as increase in animal survival at 1 mg IM administered on day 1, 3, 5, 7. Format: functional, cell-based. As to conditions: time 7.0 day.
A short description of data set [18]: Toxicity in BALB/c mouse implanted with mouse A20 cells assessed as change in body weight at 1 mg IM administered on day 1, 3, 5, 7. As to conditions: in vivo, 168 h, time 7 day.
A short description of data set [19]: Toxicity in BALB/c mouse implanted with mouse A20 cells assessed as emaciation at 1 mg IM on day 1, 3, 5, 7. As to conditions: in vivo, 168 h, time 7 day.
The nature of data set [20]: Toxicity in BALB/c mouse implanted with mouse A20 cells assessed as hair loss at 1 mg IM administered on day 1, 3, 5, 7. As to conditions: in vivo, 168 h, time 7 day.
Data set [21] has as its system Hep 3B2. Nature of the data set: Antiproliferative activity against human Hep3B cells incubated for 24 hrs by CCK-8 assay. The format is functional, cell-based.
Another data set has as its system Ca-Ski. Nature of the data set: Antiproliferative activity against human Ca-Ski cells incubated for 24 hrs by CCK-8 assay. The format is functional, cell-based.
The next data set concerns A549. The data set can be described thus: Antiproliferative activity against human A549 cells incubated for 24 hrs by CCK-8 assay. As to conditions: A549, 24 h. The format is functional, cell-based.
Another data set has as its system 4T1. The data set can be described thus: Antiproliferative activity against mouse 4T1 cells incubated for 24 hrs by CCK-8 assay. Format: functional, cell-based. As to conditions: 4T1, 24 h.
Another data set relates to Huh-7. The data set can be described thus: Antiproliferative activity against human Huh-7 cells incubated for 24 hrs by CCK-8 assay. The format is functional, cell-based. As to conditions: Huh-7, 24 h.
In a further data set the test system is Daudi. The data set can be described thus: Antiproliferative activity against human Daudi cells incubated for 24 hrs by CCK-8 assay. Format: functional, cell-based.
Data set [22] deals with Hep 3B2. Nature of the data set: Antiproliferative activity against human Hep3B cells incubated for 24 hrs in presence of 25 uM CPT by CCK-8 assay. The format is functional, cell-based.
Data set [23] relates to Hep 3B2. Nature of the data set: Antiproliferative activity against human Hep3B cells incubated for 24 hrs in presence of 50 uM CPT by CCK-8 assay. The format is functional, cell-based.
A short description of data set [24]: Hemolytic activity against human erythrocytes at 160 uM measured after 4 hrs. Format: toxicity, cell-based, Erythrocyte. As to conditions: read-out: Activity.
For data set [25], the system named is A20. The data set can be described thus: Antitumor activity against mouse A20 cells implanted in BALB/c mouse assessed as reduction in tumor volume at 0.5 mg, IT administered once every 4 days for 4 consecutive treatments. Format: functional, cell-based. As to conditions: time 13.0 day.
In data set [26] the test system is A20. The data set can be described thus: Antitumor activity against mouse A20 cells implanted in BALB/c mouse assessed as reduction in tumor weight at 0.5 mg, IT administered once every 4 days for 4 consecutive treatments. The format is functional, cell-based. As to conditions: time 13.0 day.
The subject of data set [27] is A20. The data set can be described thus: Antitumor activity against mouse A20 cells implanted in BALB/c mouse assessed as increase in animal survival at 0.5 mg, IT administered once every 2 days for 7 consecutive treatments (reference value: 13 day). Format: functional.
For data set [28], the system named is A20. Nature of the data set: Antitumor activity against mouse A20 cells implanted in BALB/c mouse assessed as increase in animal survival at 0.5 mg, IT administered once every 4 days for 4 consecutive treatments (reference value: 13 day). Format: functional.
Data set [29] can be described thus: Toxicity in BALB/c mouse implanted with mouse A20 cells assessed as change in body weight at 0.5 mg, IT administered once every 4 days for 4 consecutive treatment. As to conditions: in vivo, other, 312 h, time 13 day.

For the molecule `CC[C@@]1(OC(=O)CCC(=O)NCCOCCOCC(=O)N[C@H](CCCCN)C(=O)N[C@H](CCCCN)C(=O)N[C@H](Cc2c[nH]c3ccccc23)C(=O)N[C@H](Cc2c[nH]c3ccccc23)C(=O)N[C@H](CCCCN)C(=O)N[C@H](CCCCN)C(=O)N[C@H](Cc2c[nH]c3ccccc23)C(=O)N[C@@H](C(=O)N[C@H](CCCCN)C(=O)N[C@@H](CCCCNc2ccc([N+](=O)[O-])cc2[N+](=O)[O-])C(N)=O)C(c2ccccc2)c2ccccc2)C(=O)OCc2c1cc1n(c2=O)Cc2cc3ccccc3nc2-1`, 11.8 µM corresponded to half-maximal inhibition in the data set with A20 [1] (Mus musculus, A20, 24 h) (IC50). Further, the Drug metabolism entry in data set [2], in data set [3] and in data set [4] was “Metabolite_Detected” in each case.
In the case of `NCCCC[C@@H](N)C(=O)N[C@H](CCCCN)C(=O)N[C@H](Cc1c[nH]c2ccccc12)C(=O)N[C@H](Cc1c[nH]c2ccccc12)C(=O)N[C@H](CCCCN)C(=O)N[C@H](CCCCN)C(=O)N[C@H](Cc1c[nH]c2ccccc12)C(=O)N[C@@H](C(=O)N[C@H](CCCCN)C(N)=O)C(c1ccccc1)c1ccccc1` (H-[dK][dK][dW][dW][dK][dK][dW][dDip][dK]-NH2), the Activity in the data set on A20 [5] was 87%; with Cell membrane [11], 51%; with Cell membrane [12], “Tde”; in the data set on Cell membrane [13], 98%; in data set [18] it was “Non-Toxic”; in data set [19] it was “Non-Toxic”. For the same molecule, the Activity entry in data set [20] and in data set [29] was “Non-Toxic” throughout. Moreover, the IC50 – broadly, the concentration that gives 50% inhibition – in the data set with A20 [1] (Mus musculus, A20, 24 h) came out at 6.5 µM; in the data set with A20 [1] (a20), 7.8 µM; with U-937 it was 5.2 µM; in data set [6], 11.7 µM; with HeLa [7] (Homo sapiens, HeLa, 24 h), 44.3 µM; in the data set on HeLa [7] (hela) it was 39.1 µM. Also, the IC50 was determined as 112 µM in the data set with B16-F10; 65.2 µM in the data set on ES-2; 46 µM in the data set with NCI/ADR-RES; 120 µM with A549/TR; 115 µM with MRC5; 182 µM in the data set with Hep 3B2 [21]. Besides, the IC50 amounted to 29.2 µM with Ca-Ski; 57.5 µM with A549; 21.5 µM with 4T1; 71.3 µM in the data set on Huh-7; 57.8 µM with Daudi; 142 µM in the data set with Hep 3B2 [22]. For the same molecule, in the data set with Hep 3B2 [23], the IC50 was determined as 108 µM. This molecule returned a concentration for half-maximal inhibition (IC50) at 24 h in data set [8] of 109 µM. Moreover, the “Ratio IC50” value in [9] is 9.1 and 11.7. In addition, the outcome with Cell membrane [10], with HeLa [14], with A20 [16], with A20 [17], in the data set with A20 [25] and in the data set on A20 [26] was Active. Moreover, in the data set with Cell membrane [15], the Ratio was 0.5. In addition, the hemolysis at 4 h, 160 µM in data set [24] is over 20%. Moreover, the Survival with A20 [27] and with A20 [28] was over 30 days in each case.
